From patent US7981879B2, “HIV integrase inhibitors” (Instituto di Ricerchi di Biologia Molecolare P. Angeletti …, priority 2005, dated 2011)
Where two headings read alike, the source gives them in different places.

System: HIV
Test: Assay for inhibition of HIV replication (spread assay): acute HIV infection of T-lymphoid cells
Type: cell-based
Conditions: read-out: CIC95, inhibition of HIV replication
Procedure: Assays for the inhibition of acute HIV infection of T-lymphoid cells (alternatively referred to herein as the “spread assay”) were conducted in accordance with Vacca, J. P. et al., Proc. Natl. Acad. Sci. USA 1994, 91: 4096. […] The other compounds in Table 1 were tested in the spread assay up to 1 micromolar, but specific IC95 values were not obtained; i.e., the IC95 values were greater than 1 micromolar. It is believed, however, that the IC95 values of these compounds would be less than about 50 micromolar.

[1] = Human immunodeficiency virus 1, spread assay, T-lymphoid cells

SMILES	IC95 (Human immunodeficiency virus 1, T-lymphoid) [µM]	IC95 [1] [µM]
CN1Cn2c(nc(C(=O)NCc3ccc(F)cc3)c(O)c2=O)C12CCCCC2 [Compound 1, N-(4-fluorobenzyl)-3′-hydroxy-7′-methyl-4′-oxo-6′,7′-dihydro-4′H-spiro[cyclohexane-1,8′-imidazo[1,5-a]pyrimidine]-2′-carboxamide]	< 1	
CN1Cn2c(nc(C(=O)NCc3ccc(F)cc3S(C)(=O)=O)c(O)c2=O)C1(C)C [Compound 2, N-[4-fluoro-2-(methylsulfonyl)benzyl]-3-hydroxy-7,8,8-trimethyl-4-oxo-4,6,7,8-tetrahydroimidazo[1,5-a]pyrimidine-2-carboxamide]		< 1
CN1Cn2c(nc(C(=O)NCc3ccc(F)cc3)c(O)c2=O)C1(C)C [Compound 5, N-(4-fluorobenzyl)-3-hydroxy-7,8,8-trimethyl-4-oxo-4,6,7,8-tetrahydroimidazo[1,5-a]pyrimidine-2-carboxamide]		< 1
CC1(C)c2nc(C(=O)NCc3ccc(F)cc3)c(O)c(=O)n2CN1Cc1cccnc1 [Compound 6, N-(4-fluorobenzyl)-3-hydroxy-8,8-dimethyl-4-oxo-7-(pyridin-3-ylmethyl)-4,6,7,8-tetrahydroimidazo[1,5-a]pyrimidine-2-carboxamide]		< 1
O=C(NCc1ccc(F)cc1)c1nc2n(c(=O)c1O)CCNC2COCc1ccccc1 (centres unmarked) [Compound 9, 9-[(benzyloxy)methyl]-N-(4-fluorobenzyl)-3-hydroxy-4-oxo-6,7,8,9-tetrahydro-4H-pyrazino[1,2-a]pyrimidine-2-carboxamide]		< 1
CN1CCn2c(nc(C(=O)NCc3ccc(F)cc3)c(O)c2=O)C1COCc1ccccc1 (centres unmarked) [Compound 11, 9-[(benzyloxy)methyl]-N-(4-fluorobenzyl)-3-hydroxy-8-methyl-4-oxo-6,7,8,9-tetrahydro-4H-pyrazino[l,2-a]pyrimidine-2-carboxamide]		1 to 10
CC(=O)N1CCn2c(nc(C(=O)NCc3ccc(F)cc3)c(O)c2=O)C1COCc1ccccc1 (centres unmarked) [Compound 12, 8-acetyl-9-[(benzyloxy)methyl]-N-(4-fluorobenzyl)-3-hydroxy-4-oxo-6,7,8,9-tetrahydro-4H-pyrazino[1,2-a]pyrimidine-2-carboxamide]		1 to 10
CSCC1NCCn2c1nc(C(=O)NCc1ccc(F)cc1)c(O)c2=O (centres unmarked) [Compound 27, N-(4-fluorobenzyl)-3-hydroxy-9-[(methylthio)methyl]-4-oxo-6,7,8,9-tetrahydro-4H-pyrazino[1,2-a]pyramidine-2-carboxamide]		< 1
CN1CCn2c(nc(C(=O)NCc3ccc(F)cc3)c(O)c2=O)C1CS(C)(=O)=O (centres unmarked) [Compound 28, N-(4-fluorobenzyl)-3-hydroxy-8-methyl-9-[(methylsulfonyl)methyl]-4-oxo-6,7,8,9-tetrahydro-4H-pyrazino[1,2-a]pyrimidine-2-carboxamide]		1 to 10
O=C(NCc1ccc(F)cc1)c1nc2n(c(=O)c1O)CCNC21CCOCC1 [Compound 29, N-(4-fluorobenzyl)-3′-hydroxy-4′-oxo-2,3,5,6,7′,8′-hexahydro-4′H,6′H-spiro[pyran-4,9′-pyrazino[1,2-a]pyrimidine]-2′-carboxamide]		< 1
CN1CCn2c(nc(C(=O)NCc3ccc(F)cc3)c(O)c2=O)C12CCOCC2 [Compound 30, N-(4-fluorobenzyl)-3′-hydroxy-8′-methyl-4′-oxo-2,3,5,6,7′,8′-hexahydro-4′H,6′H-spiro[pyran-4,9′-pyrazino[1,2-a]pyrimidine]-2′-carboxamide]		< 1
CC1c2nc(C(=O)NCc3ccc(F)cc3)c(O)c(=O)n2CCN1C (centres unmarked) [Compound 32, N-(4-fluorobenzyl)-3-hydroxy-8,9-dimethyl-4-oxo-6,7,8,9-tetrahydro-4H-pyrazino[1,2-a]pyrimidine-2-carboxamide]		< 1
CN(C)C(=O)CN1CCn2c(nc(C(=O)NCc3ccc(F)cc3)c(O)c2=O)C1(C)C [Compound 64, 8-[2-(dimethylamino)-2-oxoethyl]-N-(4-fluorobenzyl)-3-hydroxy-9,9-dimethyl-4-oxo-6,7,8,9-tetrahydro-4H-pyrazino[1,2-a]pyrimidine-2-carboxamide]		1 to 10
CC1(C)NS(=O)(=O)Cn2c1nc(C(=O)NCc1ccc(F)cc1)c(O)c2=O [Compound 105, N-(4-fluorobenzyl)-3-hydroxy-9,9-dimethyl-4-oxo-8,9-dihydro-4H-pyrimido[2,1-d][1,2,5]thiadiazine-2-carboxamide 7,7-dioxide]		1 to 10
CN1CCn2c(nc(C(=O)NCc3ccc(F)cc3)c(O)c2=O)C(N(C)Cc2ccccc2)C1 (centres unmarked) [Compound 159, 10-[benzyl(methyl)amino]-N-(4-fluorobenzyl)-3-hydroxy-8-methyl-4-oxo-4,6,7,8,9,10-hexahydropyrimido[1,2-d][1,4]diazepine-2-carboxamide]		1 to 10
CN1CCn2c(nc(C(=O)NCc3ccc(F)cc3)c(O)c2=O)C(NC(=O)C(=O)N(C)C)C1 (centres unmarked) [Compound 160, N′-(2-{[(4-fluorobenzyl)amino]carbonyl}-3-hydroxy-8-methyl-4-oxo-4,6,7,8,9,10-hexahydropyrimido[1,2-d][1,4]diazepin-10-yl)-N,N-dimethylethanediamide]		< 1
CC(=O)N(CC(C)C)C1CN(C)CCn2c1nc(C(=O)NCc1ccc(F)cc1)c(O)c2=O (centres unmarked) [Compound 161, 10-[acetyl(isobutyl)amino]-N-(4-fluorobenzyl)-3-hydroxy-8-methyl-4-oxo-4,6,7,8,9,10-hexahydropyrimido[1,2-d][1,4]diazepine-2-carboxamide]		< 1
CN1CCn2c(nc(C(=O)NCc3ccc(F)cc3)c(O)c2=O)C(N(C)S(C)(=O)=O)C1 (centres unmarked) [Compound 163, N-(4-fluorobenzyl)-3-hydroxy-8-methyl-10-[methyl(methylsulfonyl)amino]-4-oxo-4,6,7,8,9,10-hexahydropyrimido[1,2-d][1,4]diazepine-2-carboxamide]		< 1
COC(=O)N(C)C1CN(C)CCn2c1nc(C(=O)NCc1ccc(F)cc1)c(O)c2=O (centres unmarked) [Compound 166, methyl (2-{[(4-fluorobenzyl)amino]carbonyl}-3-hydroxy-8-methyl-4-oxo-4,6,7,8,9,10-hexahydropyrimido[1,2-d][1,4]diazepin-10-yl)methylcarbamate]		< 1
CC(C)CNC1CN(C)CCn2c1nc(C(=O)NCc1ccc(F)cc1)c(O)c2=O (centres unmarked) [Compound 169, N-(4-fluorobenzyl)-3-hydroxy-10-(isobutylamino)-8-methyl-4-oxo-4,6,7,8,9,10-hexahydropyrimido[1,2-d][1,4]diazepine-2-carboxamide]		1 to 10
CC(=O)N(C)C1CN(C)CCn2c1nc(C(=O)NCc1ccc(F)cc1)c(O)c2=O (centres unmarked) [Compound 170, 10-[acetyl(methyl)amino]-N-(4-fluorobenzyl)-3-hydroxy-8-methyl-4-oxo-4,6,7,8,9,10-hexahydropyrimido[1,2-d][1,4]diazepine-2-carboxamide]		< 1
CC1(C)NCCCn2c1nc(C(=O)NCc1ccc(F)cc1)c(O)c2=O [Compound 175, N-(4-fluorobenzyl)-3-hydroxy-10,10-dimethyl-4-oxo-4,6,7,8,9,10-hexahydropyrimido[1,2-a][1,4]diazepine-2-carboxamide]		< 1
CN1CCCn2c(nc(C(=O)NCc3ccc(F)cc3)c(O)c2=O)C1(C)C [Compound 176, N-(4-fluorobenzyl)-3-hydroxy-9,10,10-trimethyl-4-oxo-4,6,7,8,9,10-hexahydropyrimido[1,2-a][1,4]diazepine-2-carboxamide]		< 1
